Test results as given in US11098035B2, “Compounds, compositions, and methods for increasing CFTR activity” (Proteostasis Therapeutics, Inc., priority 2014, dated 2021).

Experiments:
ΔF508-CFTR [1] = target: T1, ΔF508-CFTR (Homo sapiens, UniProt P13569, DEL508-508); experiment: Ussing Measurements; type: cell-based; conditions: compound at 10 uM and VX-809 at 3 uM, activity as % of VX-809 (3 uM); CFTRinh-172 inhibitable short-circuit current; hBEs homozygous for ΔF508, 24 h treatment
T1 construct: Primary lung epithelial cells homozygous for the Cystic Fibrosis-causing ΔF508 mutation were differentiated for a minimum of 4 weeks; endogenous in cells; host or cells: primary human bronchial (lung) epithelial cells (hBE) homozygous for ΔF508, differentiated at an air-liquid interface
Description: As discussed above, Ussing measurements are used to measure CFTR activity. In this method, primary lung epithelial cells (hBEs) homozygous for the Cystic Fibrosis-causing ΔF508 mutation are differentiated for a minimum of 4 weeks in an air-liquid interface on SnapWell filter plates prior to the Ussing measurements. Cells are apically mucus-washed for 30 minutes prior to treatment with compounds. The basolateral media is removed and replaced with media containing the compound of interest diluted to its final concentration from DMSO stocks. Treated cells are incubated at 37° C. and 5% CO2 for 24 hours. […] The short-circuit current is measured in voltage clamp-mode (Vhold=0 mV), and the entire assay is conducted at a temperature of 36° C.-36.5° C. Once the voltages stabilized, the chambers are clamped, and data is recorded by pulse readings every 5 seconds. Following baseline current stabilization, the following additions can be applied and the changes in current and resistance of the cells can be monitored: • 1. […]
The inhibitable current (that current that is blocked by CFTRinh-172) is measured as the specific activity of the ΔF508-CFTR channel, and increases in response to compound in this activity over that observed in vehicle-treated samples are identified as the correction of ΔF508-CFTR function imparted by the compound tested. […]

ΔF508-CFTR [2] = target: T1, ΔF508-CFTR; experiment: hBE Equivalent Current (Ieq) Assay; type: cell-based; conditions: compound at 10 uM and VX-809 at 1 uM, activity as % of VX-809 (1 uM); AUC of equivalent chloride current; primary lung epithelial cells homozygous for ΔF508, 24 h treatment
Description: Primary lung epithelial cells homozygous for the Cystic Fibrosis-causing ΔF508 mutation were differentiated for a minimum of 4 weeks in an air-liquid interface on Costar 24 well HTS filter plates prior to the equivalent current (Ieq) measurements. Cells were apically mucus-washed for 30 minutes 24 h prior to treatment with compounds. The basolateral media was removed and replaced with media containing the compound of interest diluted to its final concentration from DMSO stocks. Treated cells were incubated at 37° C. and 5% CO2 for 24 hours. At the end of the treatment period, the media was changed to the Ieq experimental solution for 30 minutes before the experiment and plates are maintained in a CO2-free incubator during this period. The plates containing the cells were then placed in pre-warmed heating blocks at 36° C.±0.5 for 15 minutes before measurements are taken. The transepithelial voltage (VT) and conductance (GT) were measured using a custom 24 channel current clamp (TECC-24) with 24 well electrode manifold. The Ieq assay measurements were made following additions with standardized time periods: • 1. The baseline VT and GT values were measured for approximately 20 minutes. • 2. Benzamil was added to block ENaC for 15 minutes. • 3. Forskolin plus VX-770 were added to maximally activate ΔF508-CFTR for 27 minutes. • 4. Bumetanide was added to inhibit the NaK2Cl cotransporter and shut-off secretion of chloride.
The activity data captured was the area under the curve (AUC) for the traces of the equivalent chloride current. The AUC was collected from the time of the forskolin/VX-770 addition until the inhibition by bumetanide addition. Correction in response to compound treatment was scored as the increase in the AUC for compound-treated samples over that of vehicle-treated samples.
The results are shown below in Table 2. ++ indicates activity ≥25% run at 10 uM of VX-809 at 1 uM, + indicates activity 10 to <25% run at 10 uM of VX-809 at 1 uM, **indicates activity ≥200% of VX-809 (1 uM) with compound at 10 uM and VX-809 at 1 uM; * indicates activity 100-200% of VX-809 (1 uM) with compound at 10 uM and VX-809 at 1 uM. ^## indicates activity ≥200% of VX-809 (3 uM) with compound at 10 uM and VX-809 at 3 uM; ^# indicates activity 100-200% of VX-809 (3 uM) with compound at 10 uM and VX-809 at 3 uM.

T1 sequence (P13569 with tags, fused parts or gaps DEL508-508): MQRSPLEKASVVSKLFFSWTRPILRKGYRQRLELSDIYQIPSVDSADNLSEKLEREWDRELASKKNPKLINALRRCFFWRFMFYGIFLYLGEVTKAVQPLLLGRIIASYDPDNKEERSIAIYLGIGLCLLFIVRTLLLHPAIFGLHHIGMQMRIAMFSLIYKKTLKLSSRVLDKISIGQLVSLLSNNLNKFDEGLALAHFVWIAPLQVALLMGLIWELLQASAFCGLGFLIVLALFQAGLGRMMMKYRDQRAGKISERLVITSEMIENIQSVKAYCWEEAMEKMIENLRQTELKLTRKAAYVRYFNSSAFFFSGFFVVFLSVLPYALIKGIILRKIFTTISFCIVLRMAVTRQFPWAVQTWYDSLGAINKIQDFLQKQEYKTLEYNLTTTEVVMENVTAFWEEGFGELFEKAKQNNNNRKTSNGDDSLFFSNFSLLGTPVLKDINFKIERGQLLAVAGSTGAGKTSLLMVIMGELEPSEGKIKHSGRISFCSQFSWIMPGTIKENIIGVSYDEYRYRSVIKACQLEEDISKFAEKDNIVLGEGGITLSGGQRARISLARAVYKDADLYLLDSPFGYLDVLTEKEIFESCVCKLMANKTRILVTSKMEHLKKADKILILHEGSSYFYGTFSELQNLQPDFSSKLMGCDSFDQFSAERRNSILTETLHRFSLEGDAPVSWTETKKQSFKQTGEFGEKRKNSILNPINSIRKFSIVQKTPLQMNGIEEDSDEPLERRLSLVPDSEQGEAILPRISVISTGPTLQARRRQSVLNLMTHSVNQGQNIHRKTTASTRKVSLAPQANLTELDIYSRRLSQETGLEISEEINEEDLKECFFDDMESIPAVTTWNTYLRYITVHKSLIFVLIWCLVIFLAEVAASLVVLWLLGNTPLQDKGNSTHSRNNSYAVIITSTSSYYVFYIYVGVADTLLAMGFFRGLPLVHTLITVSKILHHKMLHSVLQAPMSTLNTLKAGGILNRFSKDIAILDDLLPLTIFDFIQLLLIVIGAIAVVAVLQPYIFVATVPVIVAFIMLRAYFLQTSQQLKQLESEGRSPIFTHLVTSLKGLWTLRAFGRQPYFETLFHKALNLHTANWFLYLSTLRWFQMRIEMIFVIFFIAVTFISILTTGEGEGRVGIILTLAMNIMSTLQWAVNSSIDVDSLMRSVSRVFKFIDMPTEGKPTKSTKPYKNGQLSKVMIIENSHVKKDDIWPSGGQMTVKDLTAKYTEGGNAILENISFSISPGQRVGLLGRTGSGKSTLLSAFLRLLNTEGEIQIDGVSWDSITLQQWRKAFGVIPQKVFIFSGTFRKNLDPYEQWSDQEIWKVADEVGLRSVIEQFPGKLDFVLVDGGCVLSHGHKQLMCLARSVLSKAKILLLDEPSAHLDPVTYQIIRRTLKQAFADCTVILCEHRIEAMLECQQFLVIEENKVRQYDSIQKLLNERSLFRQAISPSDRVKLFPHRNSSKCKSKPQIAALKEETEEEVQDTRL

| Structure (SMILES) | Ussing (ΔF508-CFTR [1]) | Ieq (ΔF508-CFTR [2]) |
| --- | --- | --- |
| O=C(NC1CC(n2nncc2CO)C1)c1cc(-c2ccccc2)no1 (stereo not drawn) [Example 5, N-trans-3-(5-(hydroxymethyl)-1H-1,2,3-triazol-1-yl)cyclobutyl)-3-phenylisoxazole-5-carboxamide] | ## (^## indicates activity ≥200% of VX-809 (3 uM) with compound at 10 uM and VX-809 at 3 uM) | – |
| C[C@@H](O)c1nnc(C2CC(NC(=O)c3cc(-c4ccccc4)no3)C2)o1 (some centres unmarked) [Example 6] | ## (^## indicates activity ≥200% of VX-809 (3 uM) with compound at 10 uM and VX-809 at 3 uM) | * (* indicates activity 100-200% of VX-809 (1 uM) with compound at 10 uM and VX-809 at 1 uM) |
| C[C@@H](O)c1nnc(CC2CC(NC(=O)c3cc(-c4ccccc4)no3)C2)s1 (stereo partly drawn) [Example 42, 3-Phenyl-N-[(1r,3r)-3-([5-[(1R)-1-hydroxyethyl]-1,3,4-thiadiazol-2-yl]methyl)cyclobutyl]-1,2-oxazole-5-carboxamide] | – | * (* indicates activity 100-200% of VX-809 (1 uM) with compound at 10 uM and VX-809 at 1 uM) |
| C[C@@H](O)c1nnc(C[C@H]2C[C@@H](NC(=O)c3cc(-c4ccc(F)cc4)no3)C2)s1 [Example 43, 3-(4-Fluorophenyl)-N-[(1s,3s)-3-([5-[(1R)-1-hydroxyethyl]-1,3,4-thiadiazol-2-yl]methyl)cyclobutyl]-1,2-oxazole-5-carboxamide] | – | ** (**indicates activity ≥200% of VX-809 (1 uM) with compound at 10 uM and VX-809 at 1 uM) |
| C[C@@H](O)c1nnc(C[C@H]2C[C@H](NC(=O)c3cc(-c4ccc(F)cc4)no3)C2)s1 [Example 44, 3-(4-Fluorophenyl)-N-[(1r,3r)-3-([5-[(1R)-1-hydroxyethyl]-1,3,4-thiadiazol-2-yl]methyl)cyclobutyl]-1,2-oxazole-5-carboxamide] | – | ** (**indicates activity ≥200% of VX-809 (1 uM) with compound at 10 uM and VX-809 at 1 uM) |
| C[C@@H](O)c1nnc(C[C@H]2C[C@@H](NC(=O)c3cc(-c4cccs4)no3)C2)o1 [Example 45, N-[(1s,3s)-3-([5-[(1R)-1-Hydroxyethyl]-1,3,4-oxadiazol-2-yl]methyl)cyclobutyl]-3-(thiophen-2-yl)-1,2-oxazole-5-carboxamide] | – | * (* indicates activity 100-200% of VX-809 (1 uM) with compound at 10 uM and VX-809 at 1 uM) |
| C[C@@H](O)c1nnc(C[C@H]2C[C@H](NC(=O)c3cc(-c4cccs4)no3)C2)o1 [Example 46, N-[(1r,3r)-3-([5-[(1R)-1-Hydroxyethyl]-1,3,4-oxadiazol-2-yl]methyl)cyclobutyl]-3-(thiophen-2-yl)-1,2-oxazole-5-carboxamide] | – | * (* indicates activity 100-200% of VX-809 (1 uM) with compound at 10 uM and VX-809 at 1 uM) |
| C[C@@H](O)c1nnc([C@H]2C[C@H](NC(=O)c3onc(-c4ccccc4)c3F)C2)o1 [Example 50, 4-Fluoro-3-phenyl-N-[(1r,3r)-3-[5-[(1R)-1-hydroxyethyl]-1,3,4-oxadiazol-2-yl]cyclobutyl]-1,2-oxazole-5-carboxamide] | – | * (* indicates activity 100-200% of VX-809 (1 uM) with compound at 10 uM and VX-809 at 1 uM) |
| C[C@H](O)c1cnnn1C[C@H]1C[C@@H](NC(=O)c2cc(-c3ccccc3)no2)C1 [Example 57, 3-Phenyl-N-[(1s,3s)-3-([5-[(1S)-1-hydroxyethyl]-1H-1,2,3-triazol-1-yl]methyl)cyclobutyl]-1,2-oxazole-5-carboxamide] | – | ** (**indicates activity ≥200% of VX-809 (1 uM) with compound at 10 uM and VX-809 at 1 uM) |
| C[C@H](O)c1cn(C[C@H]2C[C@@H](NC(=O)c3cc(-c4ccccc4)no3)C2)nn1 [Example 58, 3-Phenyl-N-[(1s,3s)-3-([4-[(1S)-1-hydroxyethyl]-1H-1,2,3-triazol-1-yl]methyl)cyclobutyl]-1,2-oxazole-5-carboxamide] | – | * (* indicates activity 100-200% of VX-809 (1 uM) with compound at 10 uM and VX-809 at 1 uM) |
